What all share (type): cell-based, human
In assay [1] the test system is MM cells. As to the kind of experiment: Proliferation ([3H]-thymidine) and cell viability (MTS) assays. How it is done: RPMI 8226 and U266 human MM cell lines can be obtained from the American Type Culture Collection (ATCC) of Rockville, Md. Patient derived MM cells are purified from patient BM samples, as described by Y. T. Tai, G. Teoh, Y. Shima, et al in J. Immunol. Methods 235:11, 2000. All human MM cell lines are cultured in RPMI-1640 media (Sigma Chemical, St. Louis, Mo.), containing 10% fetal bovine serum (FBS), 2 mmol/L L-glutamine (L-glut, GIBCO, Grand Island, N.Y.), 100 U/mL penicillin and […] streptomycin (P/S, GIBCO). MM patient cells are >95% CD38+, CD45RA−. […]
MM cells are first starved for 12 h in RPMI-1640 media containing […], and then plated into 96-well microtiter plates (Costar, Cambridge, Mass.), in the presence of drug or DMSO control. […] Proliferation is measured by the incorporation of [^3H]-thymidine (NEN Products, Boston, Mass.). Specifically, cells are pulsed with [^3H]-thymidine (0.5 μCi/well) for the last 6 h of 48 h cultures, harvested onto glass filters with an automatic cell harvester (Cambridge Technology, Cambridge, Mass.), and counted using a LKB Betaplate scintillation counter (Wallac, Gaithersburg, Md.). […] Cells are exposed to the MTS for the last 2 h of 48 h cultures, and absorbance is measured using an ELISA plate reader (Molecular Devices Corp., Sunnyvale, Calif.) at OD of 570 nm.

Assay [2] relates to MM cells. As to the kind of experiment: Cell cycle analysis (propidium iodide, flow cytometry). How it is done: MM cells (1×10^6 cells) are cultured in the presence of Epothilone B or DMSO control for 24, 48 and 72 h. Cells are then washed with phosphate buffered saline (PBS), fixed with 70% ethanol, and treated with RNAse (Sigma). Cells are next stained with propidium iodide (PI, 5 μg/mL), and the cell cycle profile is determined using the M software on an Epics flow cytometer (Coulter Immunology, Hialeah, Fla.).
(Flow cytometry measures light scatter and fluorescence of single cells or particles in a stream.)

The subject of assay [3] is MM.1S cells. As to the kind of experiment: Proliferation of MM cells in a modified Boyden chamber transwell co-culture system with BMSCs. The conditions noted are these: 48 h. The procedure:
Proliferation is measured in a modified Boyden chamber transwell system, using 24-well plates with a […] pore size inserts (Costar). BMSCs (4×10^4 cells/well) are plated in the lower chamber, starved, and incubated in an epothilone as described above. MM cells (20×10^4 cells/ml) are then placed in the upper chamber (insert), and [^3H]-thymidine uptake in the individual chambers is measured at 48 h as described above.
MM.1S cells are placed in the upper chamber of a transwell co-culture system in order to preclude direct contact between MM cells and BMSCs, but nonetheless allow for diffusion of humoral factors. Despite the lack of contact between the two cell types, uptake of [^3H]-dT by MM.1S cells incubated with BMSCs is increased by 2.2-fold (p<0.0001) at 48 h.

Regarding `C/C(=C\c1csc(C)n1)[C@@H]1C[C@@H]2O[C@]2(C)CCC[C@H](C)[C@H](O)[C@@H](C)C(=O)C(C)(C)[C@@H](O)CC(=O)O1` [epothilone B], in assay [1], the “growth and survival of myeloma cells” value was “directly inhibit the growth and survival of myeloma cells”. For the same compound, the “cell cycle effect / apoptosis” value in assay [2] is “induces G2M arrest in MM cells with subsequent apoptosis”. In assay [3], the “proliferation of MM.1S cells ([3H]-dT uptake)” value was “reduces proliferation of MM.1S cells”.
